Results taken from patent US8399510B2, “Method of activating NK cells” (University of South Florida, priority 2007, dated 2013).
pIC50: −log10 of the molar value.

Assays:
[1] = system: NKG2D; test: NKG2D expression on LAK cells (staining for NK1.1, TCR-β, NKG2D); assay type: cell-based, mouse; conditions: 67.32 μM NSC119910, 4 hours; SHIP−/− or WT cells
Method: Next, the ability of NSC119910 to restore killing in the SHIP^−/− NK cell was tested. The effective in vitro dose at which NSC119910 was able to restore SHIP^−/− cytotoxicity was determined in a dose titration experiment. Through this, 67.32 μM was identified as the effective dose (data not shown). This concentration of 67.32 μM of NSC119910 was used for all subsequent standard 4-hour 51Cr release assays, performed with SHIP^−/− (^−/−) or WT (^+/+) LAK cells and using a ratio of 30:1 and 3000 target cells in the presence of 67.32 μM NCI119910 or media alone (−). […] The experiments were repeated, using M157+ BaF3 transfectants were used as targets (FIG. 5D). SHIP^−/− (^−−) or WT (^++) cells were incubated with 67.32 μM NSC119910 (119910) or media alone (CNT) for 4 hours. The cells were then stained for NK1.1, TCR-β and NKG2D and analyzed for NKG2D expression. The addition of NSC119910 to LAK cells had no effect on the expression levels of NKG2D (FIG. 5E). The experiments were also performed with m157^+ BaF3 targets. […] Although the increase is not as dramatic as observed with NKG2D mediated cytolysis, this increase has been observed consistently in multiple cytolysis assays with the m157^+ BaF3 targets. […]

[2] = biological target: SHP1 (Homo sapiens, UniProt P29350); test: PTP inhibition assay (DiFMUP substrate), SHP1; assay type: biochemical
Method: (§1) PTP activity was measured using the fluorogenic 6,8-difluoro-4-methylumbelliferyl phosphate (DiFMUP; Invitrogen, Carlsbad, Calif.) as the substrate. Each reaction contained 25 mM HEPES, 50 mM NaCl, 0.05% Triton, 1 mM dithiothreitol, 20 μM DiFMUP, 10 nM Microcystin LR, 20 nM GST-PTP, and 10 μl of test compound or dimethyl sulfoxide (solvent) in a total reaction volume of 100 μl in black 96-well plates. Reaction was initiated by addition of DiFMUP, and the incubation time was 30 min at room temperature. DiFMUP fluorescence signal was measured at an excitation of 355 nm and an emission of 460 nm with a plate reader (Victor2 1420; PerkinElmer Wallac, Gaithersburg, Md.). IC50 was defined as the concentration of an inhibitor that caused a 50% decrease in the PTP activity. For IC50 determination, eight concentrations of NSC119910 at one-third dilution (˜0.5 log) were tested. The ranges of NSC119910 concentrations used in each PTP assay were determined from preliminary trials. Each experiment was performed either in triplicate or duplicate, and IC50 data were derived from at least two independent experiments. The curve-fitting program Prism 4 (GraphPad Software, San Diego, Calif.) was used to calculate IC50 values.

[3] = system: SHIP−/− LAK cells; test: 4 hour 51Cr release cytolysis assay with SHIP−/− LAK cells; assay type: cell-based
Method: (§2) NK cells were magnetically enriched from whole splenocytes using the Miltenyi mouse NK cell enrichment kit and an Automac (Miltenyi) per the manufacturer's instructions. Magnetically enriched cells were plated at 2×10^6 cells/mL in the presence of 2000 units/mL human rIL-2 (Proleukin). Non-adherent cells were removed on day 2 and media replaced as necessary. On day 7 a standard 4 hour chromium release assay was performed. Briefly, target cells were loaded with 100 μCi of 51Cr per 1×10^6 cells for 60 minutes at 37° C. The target and lymphokine activate killer (LAK) 3 cells were then incubated together at 37° C. for 4 hours in the presence of inhibitors or media alone. Supernatants were collected and measured for radioactivity on a gamma counter (Perkin Elmer Wizard1470).
(§3) All experiments using sodium orthovanadate (NaOV) were performed with 100 μM activated NaOV. NaOV was activated by adjusting the pH of a 200 mM stock to pH 10.0 by the addition NaOH or HCl followed by boiling until the solution becomes colorless and then cooling to room temperature. This process is then repeated until the pH of the NaOV stabilizes at 10.0 (44). NaOV was added to the wells of the killing assay with the LAK cells 15 to 30 min prior to adding target cells at room temperature. NSC119910 was obtained from the Drug Synthesis and Chemistry Branch, Developmental Therapeutics Program, Division of Cancer Treatment and Diagnosis, NCI. The structure of NSC119910 was confirmed by proton NMR using a Varian Mercury-Plus, Oxford AS400 spectrometer. The 1H NMR spectrum was recorded at 400 MHz using DMSO-d6 as solvent and tetramethylsilane (TMS) as an internal standard. Chemical shift values are reported in parts per million (δ). […] 25 times this IC50 was established as the effective dose for NK cell based assays. NSC119910 was added immediately before the addition of target cells on ice. Both compounds were tested at their working concentration for the ability to kill and/or lyse the target cells without LAK cells being present.
Given the inappropriate degree of SHP1 recruitment to 2B4 in SHIP^−/− NK cells, the possibility of using chemical inhibitors to block its tyrosine phosphatase activity was explored to determine if this could restore killing of complex targets by SHIP-deficient NK cells. Standard four-hour 51Cr release assays were performed with SHIP^−/− (−/−) or WT (+/+) LAK cells, with a ratio of 30:1 and 3000 target cells for all conditions. NaOV (100 μM) was used first, a broadly acting tyrosine phosphatase inhibitor to counteract the effects of the SHP1 over-recruitment to 2B4, with a medium-only negative control. […] In fact, SHIP-deficient NK cytolysis of RMA parental targets exceeds that of WT LAK cells. This supernormal killing has been consistently observed against RMA targets in three separate studies with NaOV-treated SHIP^−/− LAK cells. This finding indicates phosphatase inhibition can restore the ability of SHIP^−/− NK cells to kill complex targets via NKG2D, while also expanding the capacity of SHIP-deficient NK cells to kill tumor cells in the absence of ligands for NKG2D.
Next, the ability of NSC119910 to restore killing in the SHIP^−/− NK cell was tested. The effective in vitro dose at which NSC119910 was able to restore SHIP^−/− cytotoxicity was determined in a dose titration experiment. Through this, 67.32 μM was identified as the effective dose (data not shown). This concentration of 67.32 μM of NSC119910 was used for all subsequent standard 4-hour 51Cr release assays, performed with SHIP^−/− (^−/−) or WT (^+/+) LAK cells and using a ratio of 30:1 and 3000 target cells in the presence of 67.32 μM NCI119910 or media alone (−). […] The experiments were repeated, using M157+ BaF3 transfectants were used as targets (FIG. 5D). SHIP^−/− (^−−) or WT (^++) cells were incubated with 67.32 μM NSC119910 (119910) or media alone (CNT) for 4 hours. The cells were then stained for NK1.1, TCR-β and NKG2D and analyzed for NKG2D expression. […]

[4] = system: WT LAK cells; test: 4 hour 51Cr release cytolysis assay with WT LAK cells; assay type: cell-based, mouse
Method: as §2, §3
Given the inappropriate degree of SHP1 recruitment to 2B4 in SHIP^−/− NK cells, the possibility of using chemical inhibitors to block its tyrosine phosphatase activity was explored to determine if this could restore killing of complex targets by SHIP-deficient NK cells. Standard four-hour 51Cr release assays were performed with SHIP^−/− (−/−) or WT (+/+) LAK cells, with a ratio of 30:1 and 3000 target cells for all conditions. […]
Next, the ability of NSC119910 to restore killing in the SHIP^−/− NK cell was tested. The effective in vitro dose at which NSC119910 was able to restore SHIP^−/− cytotoxicity was determined in a dose titration experiment. […] The cells were then stained for NK1.1, TCR-β and NKG2D and analyzed for NKG2D expression. […]

[5] = biological target: T1, SHP2 (Homo sapiens, UniProt Q06124); test: PTP inhibition assay (DiFMUP substrate), SHP2; assay type: biochemical; conditions: in vitro phosphatase activity, versus PTP1b
T1 sequence (Q06124 1-593): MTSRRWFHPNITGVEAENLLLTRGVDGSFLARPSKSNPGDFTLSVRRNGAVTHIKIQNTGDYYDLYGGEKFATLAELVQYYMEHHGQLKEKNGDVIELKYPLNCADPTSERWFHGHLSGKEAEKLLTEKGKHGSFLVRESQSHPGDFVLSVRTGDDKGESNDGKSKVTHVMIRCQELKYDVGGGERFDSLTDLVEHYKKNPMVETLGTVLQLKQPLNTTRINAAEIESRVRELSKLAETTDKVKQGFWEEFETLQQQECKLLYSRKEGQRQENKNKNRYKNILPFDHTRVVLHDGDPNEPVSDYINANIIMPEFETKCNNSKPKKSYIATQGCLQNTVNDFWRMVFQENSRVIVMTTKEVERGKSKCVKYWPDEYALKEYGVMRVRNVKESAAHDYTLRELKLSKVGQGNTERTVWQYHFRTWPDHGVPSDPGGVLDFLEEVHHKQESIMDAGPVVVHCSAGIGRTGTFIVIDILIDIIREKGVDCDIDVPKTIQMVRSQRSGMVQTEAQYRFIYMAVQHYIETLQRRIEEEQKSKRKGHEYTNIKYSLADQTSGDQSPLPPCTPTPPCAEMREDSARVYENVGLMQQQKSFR
Method: as §1

[6] = 67.32 μM NSC119910, ratio 30:1, 3000 target cells
[7] = 100 μM NaOV, ratio 30:1, 3000 target cells

Chain of SHP1 (P29350 whole entry): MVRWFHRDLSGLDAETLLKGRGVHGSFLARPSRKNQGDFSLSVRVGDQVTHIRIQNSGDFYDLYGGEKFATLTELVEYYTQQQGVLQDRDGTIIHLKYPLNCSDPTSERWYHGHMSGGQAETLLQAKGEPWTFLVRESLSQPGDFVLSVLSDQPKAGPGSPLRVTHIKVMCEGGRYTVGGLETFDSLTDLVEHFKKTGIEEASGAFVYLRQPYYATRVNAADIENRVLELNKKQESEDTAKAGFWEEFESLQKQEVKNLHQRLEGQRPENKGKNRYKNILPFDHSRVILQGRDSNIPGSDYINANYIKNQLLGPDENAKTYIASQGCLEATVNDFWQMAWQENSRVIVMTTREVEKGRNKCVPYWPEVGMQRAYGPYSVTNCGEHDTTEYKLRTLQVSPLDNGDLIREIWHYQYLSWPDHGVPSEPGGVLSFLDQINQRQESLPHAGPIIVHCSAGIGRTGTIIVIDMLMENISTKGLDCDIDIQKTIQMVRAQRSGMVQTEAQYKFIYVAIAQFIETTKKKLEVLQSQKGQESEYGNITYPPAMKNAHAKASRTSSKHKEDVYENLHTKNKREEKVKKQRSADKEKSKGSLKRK

Row | Compound | expression levels of NKG2D on LAK cells [1] | selectivity to SHP1 over PTP1b ([2]; in vitro phosphatase activity, versus PTP1b) | pIC50 ([2]; purified SHP1, read-out: cell free, in vitro IC50 using purified SHP1) | killing of m157+ BaF3 targets by SHIP−/− NK cells ([3]; 67.32 μM NSC119910) | killing of Rae1+ RMA targets by SHIP−/− NK cells [3, 6] | killing of parental RMA targets by SHIP−/− NK cells [3, 6] | effective in vitro dose restoring SHIP−/− cytotoxicity ([3]; dose titration experiment (data not shown)) [µM] | cytolytic activity of WT NK cells against Rae1+ targets [4, 6] | killing of m157+ cells by WT LAK cells ([4]; NSC119910, compared with the increase seen with NaOV) | killing of RMA cells by WT NK cells ([4]; in the presence of NSC119910) | selectivity to SHP2 over PTP1b [5] | killing of m157+ BaF3 targets by SHIP−/− NK cells ([3]; 100 μM NaOV) | killing of parental BaF3 targets by SHIP−/− NK cells ([3]; 100 μM NaOV) | killing of RMA parental targets by SHIP−/− LAK cells [3, 7] | killing of Rae1+ RMA targets by SHIP−/− LAK cells [3, 7] | killing of RMA or RMA-Rae1+ targets by WT LAK cells [4, 7]
1 | O=C(O)C1CCCCC1c1c2ccc(=O)c(O)c-2oc2c(O)c(O)ccc12 (stereo not shown) [NSC119910] | no effect | approximately 10 fold | 5.57 | increased | significantly restored killing | significantly restored killing | 67.32 | no effect | the same increase of killing of m157^+ cells by WT LAK cells was not seen | increase | approximately 100 fold | – | – | – | – | –
2 | [Na+].[Na+].[Na+].[O]=[V]([O-])([O-])[O-] [NaOV, Sodium orthovanadate, reference compound] | – | – | – | – | – | – | – | – | – | – | – | able to increase the capacity | able to increase the capacity | increased the capacity | restore cellular ability to mediate efficient killing | increased killing by WT LAK cells was not seen
